In US20180207228A1, “PEPTIDE COMBINATIONS AND USES THEREOF FOR TREATING GRASS ALLERGY” (ALK-Abelló A/S, priority 2015, published 2018):
Where no end group is shown, it is not given here.

Tests used:
Type in all cases: cell-based, human
[1] = system: allergen specific T cells; assay: T cell proliferation assay (72 h) on donor derived T cell lines (TCL02/TCL03); conditions: for Proliferation % donor coverage (TCL-02 DK1): T cell lines TCL-02 DK1, 30 donors, hit criteria SI>=2, CPM>=1000; for Proliferation strength (TCL-02 DK1): T cell lines TCL-02 DK1, strength of response (average relative magnitude)
In short: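 Overlapping 20-mer and selected 15-mer grass allergen peptides were screened for proliferation using TCL02 (day 24) or TCL03 (day 34) lines. Lines came from grass-allergic donors' CD8-depleted PBMCs, primed with natural allergen mix and expanded with irradiated autologous or allogeneic APCs, PHA-P 0.5 μg/ml and rIL-2.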

[2] = system: release of IL-5 upon T cell activation; assay: Fluorospot assay, IL-5 release (DK1-TCL01, US1-TCL01); conditions: head prints TCL-02 DK1; text: 25 TCL-01 DK1 lines
Procedure: (§1) Grass allergic donors were recruited (cohort DK1 including 30 grass allergic individuals, DK2 including 24 grass allergic individuals and US1 including 15 grass allergic individuals). PBMCs were isolated from freshly drawn heparinized blood by gradient centrifugation on lymphoprep (Nycomed, Norway), washed twice and re-suspended in RPMI 1640 medium with HEPES and ultraglutamine (Cambrex, Belgium) supplemented with 5% v/v human AB-serum (Cambrex, Belgium), 100 units/ml penicillin, and 0.1 mg/ml streptomycin (Sigma, St Louis, USA) (referred to as 5% AB-medium). Aliquots of the isolated PBMCs were frozen and were thawed later to stimulate the T cell lines. Additionally either fresh or thawed PBMCs were used as antigen presenting cells (APCs) in the proliferation assay as described later. In some cases the PBMCs were freezed at this stage and thawed later on to continue the experiment as described in the following. The isolated PBMCs (fresh or thawed) were CD8 depleted by MACS magnetic depletion according to the manufacturer's instructions (Miltenyi Biotec, Bergisch Gladbach, Germany). On day 0 the CD8-depleted PBMCs (2×10^6/ml) were stimulated in 1 ml bulk cultures in AB medium in 24 well plates (Nunc, Denmark) with the mixture of natural allergens: nPhl p 1 (0.5 μg/ml), mix of nPhl p 2/nPhl p 3 (1.0 μg/ml), nPhl p 4 (0.5 μg/ml), nPhl p 5 (0.5 μg/ml) and nCyn d 1 (0.5 μg/ml). Amount of 65 U, 30 U, and 30 U recombinant IL-2 (Chiron, USA) were added per well at days 5, 6 and 7, respectively. On day 14 cells were harvested to obtain T cell line generation 01 (referred to as TCL01).
(§2) On day 14 the T cells of TCL01 were isolated, washed and counted. The isolated T cells of TCL01 generation were used to perform either ELISpot or Fluorospot assay. TCL01 were further re-stimulated as described in the next paragraph for use in T cell proliferation. The aliquot for use in T cell proliferation was re-stimulated on day 14 to carry out proliferation experiment at day 24.
(§3) In the Fluorospot assays, release of IL-5 and IFN-γ upon T cell activation (of donor derived lines DK1-TCL01, and US1-TCL01) with a peptide or a peptide-mix described herein was measured by Fluorospot assay kit (Mabtech AB) and procedures were followed as per manufacturer's instructions. Briefly anti-human IL-5 and anti-human IFN-γ coated 96 well plates were obtained and blocked with 10% AB serum in RPMI. The plates were washed thoroughly and the isolated T cells were plated and incubated with either single peptides (2 μg/ml) or peptide mixes (2 μg/ml), or allergens nPhl p1, nPhl p 2, nPhl p 3, nPhl p 4, nPhl p 5, Cyn d 1 at 2 μg/ml for 20 hrs/37° C./5% CO2. After the incubation time the cells were removed by emptying the plate. Detection antibodies 7-B6-1-FS-FITC (1:200) and 5A10-biotin (2 μg/ml) were diluted in PBS-0.1% BSA and were added to the plate and incubated for 2 hours/room temperature (RT). There-after the plates were washed and anti-FITC-green (1:200) and SA-Red (1:200) diluted in PBS±0.1% BSA were added and incubated for 1 hour/RT/dark. After the incubation period the plates were washed, emptied and fluorescence enhancer solution was added for 15 minutes/RT. Plates were emptied, fluorescence enhancer solution was firmly tapped out against a clean paper, soft plastic under drain was removed and the plates were left in the dark to dry. The counts were inspected in a fluorospot reader. Hit criteria for peptide were 20 SFCs/10^6 PBMCs, p≤0.05 and poisson 0.05 stimulated cells compared to background, and a stimulation index (SI)≥2.
(§4) The peptides were identified as hits if they fulfilled the criteria as mentioned below where stimulation index (SI) value of 2 or above, Poisson value=<0.05 and P value=<0.05, SFC>=20 (IL-5/IFN-g)/10^6 cells and CPM>=1000 (proliferation) SI can be defined as [[…]/medium control] in a Fluorospot assay and [counts per minute (cpm)/medium control] in a proliferation assay.

[3] = system: release of IFN-γ upon T cell activation; assay: Fluorospot assay, IFN-γ release (DK1-TCL01, US1-TCL01); conditions: head prints TCL-02 DK1; 17 TCL-01 DK1 lines
Procedure: as §1, §2, §3, §4

Q: How did the “Proliferation % donor coverage (TCL-02 DK1)” value (shortened to “Proliferation % donor coverage”) [1] turn out when `CC[C@H](C)[C@H](NC(=O)[C@@H](NC(=O)[C@H](CCC(=O)O)NC(=O)[C@H](CC(=O)O)NC(=O)[C@H](Cc1ccccc1)NC(=O)[C@@H](NC(=O)[C@@H](N)CC(N)=O)C(C)C)C(C)C)C(=O)N1CCC[C@H]1C(=O)N[C@H](C(=O)N[C@@H](C)C(=O)N[C@@H](Cc1ccccc1)C(=O)N[C@H](C(=O)N[C@H](C(=O)NCC(=O)N[C@@H](CCCCN)C(=O)O)C(C)C)[C@@H](C)O)[C@@H](C)O` [compound 127] was run?
A: 10.34%

Q: What about the “Proliferation strength (TCL-02 DK1)” value [1] of the same compound?
A: 2.80

Q: What about the “IL-5-Fluorospotr % donor coverage (TCL-02 DK1)” value [2] of the same compound?
A: 0.00%

Q: And the “IFN-gamma % donor coverage (TCL-02 DK1)” value [3]?
A: 0.00%

Q: Which “Proliferation % donor coverage” value [1] does the source give for `CC[C@H](C)[C@H](NC(=O)[C@@H](NC(=O)[C@H](CCCNC(=N)N)NC(=O)[C@H](CC(C)C)NC(=O)[C@H](C)NC(=O)[C@H](CCC(=O)O)NC(=O)[C@@H](NC(=O)[C@H](CC(C)C)NC(=O)[C@@H](NC(=O)[C@H](C)NC(=O)[C@@H](NC(=O)[C@H](Cc1ccc(O)cc1)NC(=O)[C@H](C)NC(=O)[C@@H](N)CC(=O)O)C(C)C)[C@@H](C)O)[C@@H](C)O)C(C)C)C(=O)N[C@@H](C)C(=O)O` [compound 128] here?
A: 60.00%

Q: And the “Proliferation strength (TCL-02 DK1)” value [1]?
A: 13.50

Q: What about the “IL-5-Fluorospotr % donor coverage (TCL-02 DK1)” value [2] of the same compound?
A: 41.67%

Q: What about the “IFN-gamma % donor coverage (TCL-02 DK1)” value [3] of the same compound?
A: 12.00%

Q: What does the source list for `CC[C@H](C)[C@H](NC(=O)[C@H](CCC(=O)O)NC(=O)[C@H](Cc1c[nH]c2ccccc12)NC(=O)[C@@H](NC(=O)CNC(=O)[C@@H](N)CC(=O)O)C(C)C)C(=O)N[C@@H](CCCCN)C(=O)N[C@@H](CO)C(=O)N[C@@H](CC(=O)O)C(=O)N[C@@H](CCCCN)C(=O)N1CCC[C@H]1C(=O)N[C@@H](CC(C)C)C(=O)N[C@@H](CCCCN)C(=O)NCC(=O)N1CCC[C@H]1C(=O)O` [compound 130]?
A: Proliferation % donor coverage (TCL-02 DK1) [1]: 10.34%; Proliferation strength (TCL-02 DK1) [1]: 1.80; IL-5-Fluorospotr % donor coverage (TCL-02 DK1) [2]: 12.50%; IFN-gamma % donor coverage (TCL-02 DK1) [3]: 4.00%

Q: Which “Proliferation % donor coverage” value [1] does the source give for `CC[C@H](C)[C@H](NC(=O)[C@@H](N)CC(=O)O)C(=O)N[C@@H](CC(N)=O)C(=O)N[C@H](C(=O)NCC(=O)N[C@@H](Cc1ccccc1)C(=O)N[C@@H](CCCCN)C(=O)N[C@@H](C)C(=O)N[C@@H](C)C(=O)N[C@H](C(=O)N[C@@H](C)C(=O)N[C@@H](C)C(=O)N[C@@H](C)C(=O)N[C@@H](C)C(=O)NCC(=O)O)C(C)C)C(C)C` [compound 131] here?
A: 55.55%

Q: What about the “Proliferation strength (TCL-02 DK1)” value [1] of the same compound?
A: 6.50

Q: And the “IL-5-Fluorospotr % donor coverage (TCL-02 DK1)” value [2]?
A: 22.22%

Q: What about the “IFN-gamma % donor coverage (TCL-02 DK1)” value [3] of the same compound?
A: 0.00%

Q: For `CC(C)[C@H](NC(=O)[C@H](C)NC(=O)[C@H](C)NC(=O)[C@H](CCCCN)NC(=O)[C@@H](N)Cc1ccccc1)C(=O)N[C@@H](C)C(=O)N[C@@H](C)C(=O)N[C@@H](C)C(=O)N[C@@H](C)C(=O)NCC(=O)N[C@@H](C)C(=O)N1CCC[C@H]1C(=O)N1CCC[C@H]1C(=O)N[C@@H](C)C(=O)N[C@@H](CC(=O)O)C(=O)O` [compound 133], which “Proliferation % donor coverage” value [1] is on record?
A: 31.03%

Q: And the “Proliferation strength (TCL-02 DK1)” value [1]?
A: 4.70

Q: And the “IL-5-Fluorospotr % donor coverage (TCL-02 DK1)” value [2]?
A: 21.74%

Q: What about the “IFN-gamma % donor coverage (TCL-02 DK1)” value [3] of the same compound?
A: 0.00%

Q: What does the source list for AAESSSKAALTSKLDAAYKL-OH [compound 78]?
A: Proliferation % donor coverage (TCL-02 DK1) [1]: 16.67%; Proliferation strength (TCL-02 DK1) [1]: 3.00; IL-5-Fluorospotr % donor coverage (TCL-02 DK1) [2]: 0.00%; IFN-gamma % donor coverage (TCL-02 DK1) [3]: 0.00%

Q: For AAGVPPADKYRTFVATFGAA-OH [compound 75], which “Proliferation % donor coverage” value [1] is on record?
A: 10.00%

Q: What about the “Proliferation strength (TCL-02 DK1)” value [1] of the same compound?
A: 1.10

Q: And the “IL-5-Fluorospotr % donor coverage (TCL-02 DK1)” value [2]?
A: 0.00%

Q: And the “IFN-gamma % donor coverage (TCL-02 DK1)” value [3]?
A: 0.00%
